Experimental data reported in patent publication US8268836B2, “Compound useful as a c-Met inhibitor” (Eli Lilly and Company, priority 2010, dated 2012).
≈ marks a conversion by molar mass, not a printed value. Where two headings read alike, the source gives them in different places.

Tests used:
[1] = target: T1, human c-Met (phospho-c-Met in S114 tumors) (Homo sapiens, UniProt P08581); experiment: c-Met in vivo target inhibition (IVTI) assay, S114 tumors in nude mice; design: species or system mouse
T1 construct: expressed in transfected cells; host or cells: S114 cells grown as subcutaneous tumors in athymic nude mice
T1 sequence (P08581 25-1390): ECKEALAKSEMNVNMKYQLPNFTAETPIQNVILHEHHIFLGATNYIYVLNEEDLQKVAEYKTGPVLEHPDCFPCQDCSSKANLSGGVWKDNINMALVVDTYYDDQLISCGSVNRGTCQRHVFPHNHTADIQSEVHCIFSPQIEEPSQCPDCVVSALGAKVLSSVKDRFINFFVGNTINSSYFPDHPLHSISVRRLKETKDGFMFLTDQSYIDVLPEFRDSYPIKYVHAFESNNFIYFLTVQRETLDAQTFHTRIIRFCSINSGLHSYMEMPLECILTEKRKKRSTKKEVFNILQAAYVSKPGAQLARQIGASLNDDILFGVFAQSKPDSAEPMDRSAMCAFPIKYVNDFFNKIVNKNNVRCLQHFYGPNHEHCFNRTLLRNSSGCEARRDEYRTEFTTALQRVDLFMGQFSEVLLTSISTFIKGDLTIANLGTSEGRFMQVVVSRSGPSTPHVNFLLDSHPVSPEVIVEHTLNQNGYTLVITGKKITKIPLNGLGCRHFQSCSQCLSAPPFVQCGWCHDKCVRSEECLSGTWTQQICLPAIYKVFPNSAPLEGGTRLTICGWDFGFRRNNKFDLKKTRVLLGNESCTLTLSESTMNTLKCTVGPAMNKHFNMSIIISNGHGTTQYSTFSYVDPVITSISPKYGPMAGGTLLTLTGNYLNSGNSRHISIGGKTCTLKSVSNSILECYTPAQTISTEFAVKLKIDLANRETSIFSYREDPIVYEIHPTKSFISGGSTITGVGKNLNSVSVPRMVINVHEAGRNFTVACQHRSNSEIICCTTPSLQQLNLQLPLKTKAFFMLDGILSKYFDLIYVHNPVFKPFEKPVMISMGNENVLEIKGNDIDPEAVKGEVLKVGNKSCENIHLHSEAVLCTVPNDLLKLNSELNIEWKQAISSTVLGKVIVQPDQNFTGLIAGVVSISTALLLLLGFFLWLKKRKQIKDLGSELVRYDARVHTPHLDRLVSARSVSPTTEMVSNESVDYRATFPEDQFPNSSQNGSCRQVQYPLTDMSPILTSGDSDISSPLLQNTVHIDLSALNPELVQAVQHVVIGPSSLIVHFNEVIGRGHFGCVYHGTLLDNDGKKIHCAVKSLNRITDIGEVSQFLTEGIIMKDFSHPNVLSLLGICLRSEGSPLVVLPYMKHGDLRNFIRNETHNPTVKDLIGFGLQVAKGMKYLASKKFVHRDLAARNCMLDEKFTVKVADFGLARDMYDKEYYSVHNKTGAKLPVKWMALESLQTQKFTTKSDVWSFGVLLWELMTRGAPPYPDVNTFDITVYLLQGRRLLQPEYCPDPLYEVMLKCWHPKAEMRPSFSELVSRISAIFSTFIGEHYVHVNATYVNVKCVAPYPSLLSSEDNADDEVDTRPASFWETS
Experimental: S114 cells (over-expressing both human HGF and human c-Met) are cultured in a growth media (Dulbecco's Modified Eagle Medium) supplemented with 10% fetal calf serum and expanded. Cells are harvested and washed twice with phosphate buffered saline and 2×10^6 cells are mixed with equal volume of BD Matrigel™ matrix (BD Bioscience, Franklin, N.J.), and injected subcutaneously into the flank of nude mice (athymic nude, from Harlan, Indianapolis, Ind.). At day 8 after implant, compounds (formulated in 10% acacia or 1% carboxymethylcellulose/0.5% sodium lauryl sulfate/0.05% antifoam as suspension) are administered to animals by oral gavage at 50 mg/kg. Animals are sacrificed at 2 h post dose, and tumors are harvested and stored frozen until needed.
Frozen tumors are pulverized using motar-pestel. The pulverized tissues are transferred to a tube containing Lysing Matrix D beads (MP Biomedicals, Solon, Ohio) and 600 μL lysis buffer (RIPA buffer, containing 50 mM Tris-HCl, pH 7.4, 150 mM NaCl, 1% NP-40, 0.5% sodium deoxycholate, 0.1% SDS, from Boston Bioproducts, Phosphatase Inhibitors I and II and Protease Inhibitor (Sigma, St. Louis, Mo.)). A FastPrep® Cell Disrupter (MP Biomedicals, Inc.) is used to disrupt the tissue and lyse the cells. Lysates are passed through a 20 gauge needle and transferred to a clean tube. Protein concentration is determined by Bradford method known to one of skill in the art.
Tumor lysates are loaded onto MSD® phosphor-Met ELISA plates and phosphor-c-Met level is determined using the same protocol as H460 cell-based ELISA. […] The TEC50 for example 1 is 0.18 μM with a 95% confidence interval bounded by 0.13 μM and 0.23 μM.
In IVTI studies, each compound is administered orally and formulated in 10% w/v acacia. Mouse blood samples are collected with anti-coagulant (EDTA-purple top Vacutainer tube) post-dose using cardiac puncture techniques. Tubes are inverted for 3-5 times and are placed on ice until centrifugation at 3000 RPM (1800×g) for 10 min at 4° C. to obtain plasma. Aliquots of plasma are pipetted and stored in a clean 96 well plate. Plasma samples are stored immediately at −80° C. Shipments of plasma samples are packed in dry ice and samples are frozen at −80° C. until analysis.

[2] = Kinetic solubility screen (nephelometry); format: physicochemical
Experimental: The assay is used to determine the concentration range in which a compound that has been pre-solubilized in DMSO at 10 mM will precipitate from a solution. The assay is conducted in a screening format on a 96-well plate and measures the nephelometry (light scattering) from precipitated compound in aqueous phosphate buffer (50 mM; pH 7.4). This method consists of a 2-hour RT (room temperature) incubation of compound in buffer at concentrations of 10, 20, 40, 60, 80, and 100 μM (where % DMSO is kept constant). Plates are pre-read by the nephelometer to determine if scratches or dust particles are present and this is used for background subtraction. The reported values are the concentrations at which the last soluble and first insoluble are achieved. These assays are not optimized to assess equilibrium solubility or determine a “true” kinetic solubility.

[3] = Dynamic solubility; format: physicochemical; settings: for solubility at 18 h: thermodynamic from solid
Experimental: The media included simulated gastric fluid (SGF) which comprise of 0.01N HCl, 0.05% sodium lauryl sulfate, and 0.2% NaCl; fasted state simulated intestinal fluid (SIF-fasted) which composed of 29 mM NaH2PO4, 3 mM Na taurocholate, 0.75 mM lecithin, 103 mM NaCl, and NaOH to pH 6.5; fed state simulated intestinal fluid (SIF-fed) which comprise of 144 mM acetic acid, 15 mM Na taurocholate, 3.75 mM lecithin, 204 mM NaCl, and NaOH to pH 5.0; and pH 4.5, 6, 7.5 buffers which are 28-56 mM phosphate buffers. The compound concentrations are determined using Agilent 1200 HPLC (LC5) with a UV detector. Mobile phase uses A (85%) which is water containing 0.1% TFA and B (15%) which is ACN at a flow rate of 1 mL/min and run time of 10 min. Column of Zorbax, Bonus-RP (3.5 μm, 4.6×75 mm; SN: USTM002428) is used in the studies.

**Q.** With `Cn1cc(-c2ccc3nnc(Sc4ccc5nn(C)cc5c4)n3n2)cn1` [Example 1, 6-(1-Methyl-1H-pyrazol-4-yl)-3-(2-methyl-2H-indazol-5-ylthio)-[1,2,4]triazolo[4,3-b]pyridazine] as the molecule, how does the inhibition at 16 mg/kg ([1]; 16 mg/Kg dose, 2 h, experiment separate from head to head study, read-out: Single dose IVTI % inhibition after 2 h) read?
**A.** The inhibition at 16 mg/kg was 98%.

**Q.** What about the EC50 ([1]; S114 tumors in nude mice, read-out: TEC50) of the same molecule?
**A.** Its EC50 is 180 nM.

**Q.** What about the inhibition at 8 mg/kg ([1]; S114 tumors, oral 8 mg/kg, 8 h, read-out: % phos-Met inhibition at 8 mg/kg after 8 h) of the same molecule?
**A.** Its inhibition at 8 mg/kg is 75%.

**Q.** What about the inhibition at 20 mg/kg ([1]; S114 tumors, oral 20 mg/kg, 8 h, read-out: % phos-Met inhibition at 20 mg/kg after 8 h) of the same molecule?
**A.** The inhibition at 20 mg/kg was 93%.

**Q.** And the ED50 ([1]; oral gavage, S114 tumors in nude mice)?
**A.** Its ED50 is 0.32 mg/kg.

**Q.** What about the “1st insoluble pH 7.4” value ([2]; 50 mM phosphate buffer pH 7.4, 2 h RT, from 10 mM DMSO) of the same molecule?
**A.** The value was “Non detect”.

**Q.** What about the solubility at 2 h ([2]; aqueous phosphate buffer, aqueous buffer, kinetic from dmso stock, 50 mM phosphate buffer pH 7.4, 2 h RT, from 10 mM DMSO, read-out: Last soluble pH 7.4) of the same molecule?
**A.** Its solubility at 2 h is > 100 µM.

**Q.** And the “fold more soluble than the reference compound in pH 7.4 buffer” value ([2]; kinetic solubility screen pH 7.4)?
**A.** The value was “at least 3 fold”.

**Q.** And the solubility at 18 h ([3]; 0.01N HCl, simulated gastric fluid, read-out: Dynamic solubility, 0.01N HCl)?
**A.** The solubility at 18 h was 11 µg/mL (≈ 30.4 µM).

**Q.** And the solubility at 18 h ([3]; 0.1N HCl, simulated gastric fluid, read-out: Dynamic solubility, 0.1N HCl)?
**A.** The solubility at 18 h was 33 µg/mL (≈ 91.1 µM).

**Q.** What about the “fold more soluble than the reference compound, SIF fasted” value ([3]; SIF fasted state) of the same molecule?
**A.** Its value is “approximately 13 fold”.

**Q.** What about the “fold more soluble than the reference compound, SIF fed” value ([3]; SIF fed state) of the same molecule?
**A.** Its value is ~14 fold.

**Q.** What about the solubility at 18 h ([3]; aqueous buffer, pH ≧ 4 phosphate buffer, read-out: Dynamic solubility, pH ≧ 4 buffer) of the same molecule?
**A.** The solubility at 18 h was ~10 µg/mL (≈ 27.6 µM).

**Q.** What about the solubility at 18 h ([3]; fassif, fasted state simulated intestinal fluid pH 6.5, 18 h ambient, read-out: Dynamic solubility, SIF Fasted) of the same molecule?
**A.** The solubility at 18 h was 13 µg/mL (≈ 35.9 µM).

**Q.** And the solubility at 18 h ([3]; fessif, fed state simulated intestinal fluid pH 5.0, 18 h ambient, read-out: Dynamic solubility, SIF Fed)?
**A.** The solubility at 18 h was 70 µg/mL (≈ 193 µM).

**Q.** And the solubility at 18 h ([3]; simulated gastric fluid, 18 h ambient, read-out: Dynamic solubility, SGF)?
**A.** The solubility at 18 h was 52 µg/mL (≈ 143 µM).

**Q.** What about the solubility at 18 h ([3]; water, read-out: Dynamic solubility, Water) of the same molecule?
**A.** The solubility at 18 h was 9 µg/mL (≈ 24.8 µM).
